In patent US11612661B2 (priority 2019, dated 2023):
Bridge positions count the residues as written; N and C are the ends. Square brackets hold non-standard residues; d marks the D form. Triazole bridges read from a SMILES are 1,4-linked. Peptide text beside a SMILES is read from it. Tyr(3-I) = N[C@@H](Cc1ccc(O)c(I)c1)C(=O)O; Orn(N3) = [N-]=[N+]=NCCC[C@H](N)C(=O)O; Cit = NC(=O)NCCC[C@H](N)C(=O)O; Pra = C#CC[C@H](N)C(=O)O

Legend:
[1] = tested on: chronic constriction injury (CCI) model; design: species or system Sprague Dawley rats; details: rat, in vivo
[2] = tested on: 88 receptors, transporters, enzymes and kinases; details: 10 μM
α7 nAChR = α7 nAChR (Homo sapiens, UniProt P36544); details: 10 μM; read-out: Partial inhibition of the α7 nAChR
Chain of α7 nAChR (P36544 23-502 limits assumed): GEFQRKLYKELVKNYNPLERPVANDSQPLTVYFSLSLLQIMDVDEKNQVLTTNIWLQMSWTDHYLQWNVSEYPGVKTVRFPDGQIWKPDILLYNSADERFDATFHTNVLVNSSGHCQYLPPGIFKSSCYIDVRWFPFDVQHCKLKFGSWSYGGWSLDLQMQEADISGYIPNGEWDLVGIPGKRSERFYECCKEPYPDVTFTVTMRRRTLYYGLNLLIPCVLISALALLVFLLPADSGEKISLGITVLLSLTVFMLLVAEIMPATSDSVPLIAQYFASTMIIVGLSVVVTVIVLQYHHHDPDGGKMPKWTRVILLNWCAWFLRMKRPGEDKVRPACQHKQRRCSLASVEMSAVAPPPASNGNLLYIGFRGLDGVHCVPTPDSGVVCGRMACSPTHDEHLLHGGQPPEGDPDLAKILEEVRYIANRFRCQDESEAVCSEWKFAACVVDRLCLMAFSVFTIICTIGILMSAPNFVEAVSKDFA

rat α9α10 nAChR = rat α9α10 nAChR (Rattus norvegicus, UniProt P43144+Q9JLB5); experiment: cell-based; type: cell-based; details: α9α10 nAChR IC50 (nM) Rat
Chain of rat α9α10 nAChR (P43144 26-479 limits assumed): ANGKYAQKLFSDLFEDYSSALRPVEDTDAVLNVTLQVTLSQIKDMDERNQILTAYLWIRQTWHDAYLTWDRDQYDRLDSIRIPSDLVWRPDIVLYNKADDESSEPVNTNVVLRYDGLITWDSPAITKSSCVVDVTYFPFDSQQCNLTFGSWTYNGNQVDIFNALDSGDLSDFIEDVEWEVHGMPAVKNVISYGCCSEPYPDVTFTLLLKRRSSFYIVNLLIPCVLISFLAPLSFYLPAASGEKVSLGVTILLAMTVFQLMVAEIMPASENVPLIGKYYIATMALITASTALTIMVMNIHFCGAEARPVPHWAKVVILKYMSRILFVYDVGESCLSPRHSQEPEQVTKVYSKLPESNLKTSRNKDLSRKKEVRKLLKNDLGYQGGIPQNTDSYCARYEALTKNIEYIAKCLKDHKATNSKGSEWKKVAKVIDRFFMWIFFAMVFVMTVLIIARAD
Chain of rat α9α10 nAChR (Q9JLB5 25-447 limits assumed): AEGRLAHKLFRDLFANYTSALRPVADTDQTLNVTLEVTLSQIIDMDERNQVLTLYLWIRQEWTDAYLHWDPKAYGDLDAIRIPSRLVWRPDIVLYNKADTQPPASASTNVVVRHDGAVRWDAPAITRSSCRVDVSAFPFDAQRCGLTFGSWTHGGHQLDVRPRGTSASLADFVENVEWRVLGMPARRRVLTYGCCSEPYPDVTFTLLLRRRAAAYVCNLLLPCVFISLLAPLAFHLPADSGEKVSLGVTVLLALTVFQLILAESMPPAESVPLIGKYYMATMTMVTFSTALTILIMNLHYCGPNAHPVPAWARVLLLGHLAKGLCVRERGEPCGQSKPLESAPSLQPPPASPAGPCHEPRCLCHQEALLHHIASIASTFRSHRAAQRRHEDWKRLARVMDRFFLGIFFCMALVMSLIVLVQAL

human α9α10 nAChR = human α9α10 nAChR (Homo sapiens, UniProt Q9GZZ6+Q9UGM1); experiment: cell-based; type: cell-based
Chain of human α9α10 nAChR (Q9UGM1 26-479 limits assumed): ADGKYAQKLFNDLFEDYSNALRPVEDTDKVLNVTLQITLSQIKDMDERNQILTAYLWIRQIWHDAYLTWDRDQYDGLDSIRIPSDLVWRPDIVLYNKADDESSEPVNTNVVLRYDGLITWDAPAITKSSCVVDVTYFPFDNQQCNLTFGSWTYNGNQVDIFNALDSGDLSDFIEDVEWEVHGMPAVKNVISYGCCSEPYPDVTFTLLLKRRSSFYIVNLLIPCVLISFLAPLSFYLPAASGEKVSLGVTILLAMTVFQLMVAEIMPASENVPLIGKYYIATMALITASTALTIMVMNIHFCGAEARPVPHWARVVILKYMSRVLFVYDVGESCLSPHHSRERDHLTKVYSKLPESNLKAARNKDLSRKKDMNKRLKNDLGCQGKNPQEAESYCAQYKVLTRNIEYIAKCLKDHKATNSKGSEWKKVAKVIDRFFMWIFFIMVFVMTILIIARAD
Chain of human α9α10 nAChR (Q9GZZ6 25-450 limits assumed): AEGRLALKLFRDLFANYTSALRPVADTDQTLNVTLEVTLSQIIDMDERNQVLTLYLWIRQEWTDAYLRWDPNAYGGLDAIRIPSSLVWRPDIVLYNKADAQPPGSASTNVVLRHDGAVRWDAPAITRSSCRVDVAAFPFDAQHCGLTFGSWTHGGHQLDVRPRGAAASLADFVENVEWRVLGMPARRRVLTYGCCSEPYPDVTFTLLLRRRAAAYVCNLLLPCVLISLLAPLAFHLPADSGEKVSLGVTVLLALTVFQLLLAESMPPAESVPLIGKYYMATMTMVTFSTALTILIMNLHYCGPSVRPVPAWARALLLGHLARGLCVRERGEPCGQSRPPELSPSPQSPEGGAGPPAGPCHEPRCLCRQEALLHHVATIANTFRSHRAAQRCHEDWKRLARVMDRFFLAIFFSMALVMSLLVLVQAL

Row | Structure (SMILES) | Paw withdrawal thresholds relative to vehicle-treated control animals [1] | Off-target effects in panel of 88 receptors, transporters, enzymes and kinases [2] | inhibition at 10 µM (α7 nAChR) | IC50 (rat α9α10 nAChR) | IC50 (human α9α10 nAChR)
1 | C[C@@H](O)[C@@H]1NC(=O)[C@@H]2Cc3cn(nn3)CCC[C@@H](C(=O)N[C@@H](Cc3ccc(O)cc3)C(N)=O)NC(=O)[C@H](CCC(N)=O)NC(=O)[C@H](Cc3ccc(O)c(I)c3)NC(=O)[C@H](CCCNC(N)=O)NC(=O)[C@H](CSSC[C@H](NC(=O)CN)C(=O)N2)NC(=O)[C@H](CCCNC(=N)N)NC(=O)[C@@H]2CCCN2C(=O)[C@H](CC(=O)O)NC1=O [Ib′, L-tyrosinamide, glycyl-L-cysteinyl-L-alanyl-L-threonyl-L-α-aspartyl-L-prolyl-L-arginyl-L-cysteinyl-N5-(aminocarbonyl)-L-ornithyl-L-3-iodotyrosyl-L-glutaminyl-L-norvalyl-cyclic (2→8)-disulfide-cyclic 3^3,12^5-(1H-1,2,3-triazole-4,1-diyl)] (H-GC[Pra]TDPRC[Cit][Tyr(3-I)]Q[Orn(N3)]Y-NH2; disulfide 2-8; triazole 3-12) | statistically significant improvement in paw withdrawal thresholds | no off-target effects | 56% | 2.3 ± 0.5 nM | 48 ± 9 nM
2 | C[C@@H](O)[C@@H]1NC(=O)[C@@H]2CCC(=O)NCCCC[C@@H](C(=O)N[C@@H](Cc3ccc(O)cc3)C(N)=O)NC(=O)[C@H](CCC(N)=O)NC(=O)[C@H](Cc3ccc(O)c(I)c3)NC(=O)[C@H](CCCNC(N)=O)NC(=O)[C@H](CSSC[C@H](NC(=O)CN)C(=O)N2)NC(=O)[C@H](CCCNC(=N)N)NC(=O)[C@@H]2CCCN2C(=O)[C@H](CC(=O)O)NC1=O [Iw, L-tyrosinamide, glycyl-L-cysteinyl-L-glutamyl-L-threonyl-L-α-aspartyl-L-prolyl-L-arginyl-L-cysteinyl-N5-(aminocarbonyl)-L-ornithyl-L-3-iodotyrosyl-L-glutaminyl-L-lysyl-cyclic (2→8)-disulfide-cyclic-(3→12)-lactam] (H-GCETDPRC[Cit][Tyr(3-I)]QKY-NH2; disulfide 2-8; lactam 3-12) |  |  |  | 36 ± 9 nM | > 300 nM
3 | C[C@@H](O)[C@@H]1NC(=O)[C@@H]2Cn3cc(nn3)CCC[C@@H](C(=O)N[C@@H](Cc3ccc(O)cc3)C(=O)O)NC(=O)[C@H](CCC(N)=O)NC(=O)[C@H](Cc3c[nH]c4ccccc34)NC(=O)[C@H](CCCNC(N)=O)NC(=O)[C@H](CSSC[C@H](NC(=O)CN)C(=O)N2)NC(=O)[C@H](CCCNC(=N)N)NC(=O)[C@@H]2CCCN2C(=O)[C@H](CC(=O)O)NC1=O [Ik, L-tyrosine, glycyl-L-cysteinyl-L-alanyl-L-threonyl-L-α-aspartyl-L-prolyl-L-arginyl-L-cysteinyl-N5-(aminocarbonyl)-L-ornithyl-L-tryptophyl-L-glutaminyl-L-(2S)-2-aminopentanoyl-cyclic (2→8)-disulfide-cyclic 3^3,12^5-(1H-1,2,3-triazole-1,4-diyl)] |  |  |  | 9.5 ± 1.3 nM | 16.6 ± 1.1 nM
4 | C[C@@H](O)[C@@H]1NC(=O)[C@@H]2CCCc3cn(nn3)C[C@@H](C(=O)N[C@@H](Cc3ccc(O)cc3)C(=O)O)NC(=O)[C@H](CCC(N)=O)NC(=O)[C@H](Cc3c[nH]c4ccccc34)NC(=O)[C@H](CCCNC(N)=O)NC(=O)[C@H](CSSC[C@H](NC(=O)CN)C(=O)N2)NC(=O)[C@H](CCCNC(=N)N)NC(=O)[C@@H]2CCCN2C(=O)[C@H](CC(=O)O)NC1=O [Ij, L-tyrosine, glycyl-L-cysteinyl-(2S)-2-aminopentanoyl-L-alanyl-L-threonyl-L-α-aspartyl-L-prolyl-L-arginyl-L-cysteinyl-N5-(aminocarbonyl)-L-ornithyl-L-3-iodotyrosyl-L-glutaminyl-L-alanyl-cyclic (2→8)-disulfide-cyclic 3^5,12^3-(1H-1,2,3-triazole-4,1-diyl)] |  |  |  | 69 ± 8.5 nM | 152 ± 71 nM
